From US11022550B2, “Method for observing organisms and associated system” (Commissariat à l'énergie atomique et aux énergies …, priority 2013, dated 2021)

Tests used:
Assay type in all cases: cell-based
[1] = system: Escherichia coli ATCC 35421 (strain EC21); assay: E-test minimum inhibitory concentration, resistant strain EC21
Source text: The principle of the E-test® is based on the combination of both concepts: Dilution and diffusion. The system E-test® comprises a non-porous plastic strip calibrated by a pre-established gradient of antibiotic concentration covering 15 dilutions for determining the MIC in μg/ml of a strain tested in a gelose medium.
The resistant strain is of the Escherichia coli species of ATCC number 35421. In the continuation of the description, the resistant strain is noted as EC21.
This measurement was obtained by conducting an E-test®.

[2] = system: Escherichia coli strain EC10; assay: Microcolony growth and diffraction patterns on MH2 agar with gentamycin disc gradient, strain EC10 (first and third experiments)
Source text: The solid substrate 16 is a MH2 agar medium. Depending on the cases, the solid substrate 16 includes an antibiotic with increasing concentration when one moves away from the center of the Petri dish. For example, such a gradient is obtained by depositing a disc impregnated with 30 micrograms (μg) of antibiotics. The disc, as an illustration, is a disc with a diameter of 6.5 mm, the reference of which is 66548 in the Biorad Corporation. When the disc is deposited at the surface of the substrate 16, an antibiotic concentration gradient is established, in the substrate 16, between the disc and the periphery of the substrate 16. In each case, the sample 12 to be studied is prepared according to the following procedure. At least one cell of the strain to be studied is cultivated on a trypticase soya gelose medium (often called TSA for <<Tryptic Soy Agar>>) for at least 24 hours. A suspension of 5 milliliters (ml) comprising water and an amount of cells of the strain such that the turbidity of the solution is equal to 0.5 McF (McFarland standard), is then prepared. The obtained suspension is diluted to 1/1000th in water in a single step. In the relevant experiments, […] are poured into […]. A volume of 70 μl of the thereby obtained diluted suspension is then spread out by means of a rake on the solid MH2 agar substrate 16. Such a volume corresponds to the spreading of approximately 1,000 to 1,500 colonies on the solid substrate 16. In the case when the experiment is conducted with a solid substrate 16 comprising the antibiotic gradient, the disc is applied immediately after the spreading step. The whole of the sample 12 is then incubated for six hours at a temperature of 37° C. (Celsius). After these six hours, the observation system 10 is used for applying a method for observing the cells of the sample 12. For the first experiment, the studied organisms belong to the EC10 strain and the solid substrate 16 comprises a gentamycin gradient. A first colony of cells of the EC10 strain of the sample 12 is illuminated with the laser beam emitted by the laser source 20. The center of this colony is found at a distance of 13.5 millimeters (mm) from the center of the disc, in an area with low gentamycin concentration, since it is sufficiently far from the disc. For the third experiment, a large number of diffraction patterns is acquired (about 100) for solid substrates 16 with and without gentamycin. The studied organism is a cell from the EC10 strain.

[3] = system: Escherichia coli strain EC21; assay: Microcolony growth and diffraction patterns on MH2 agar with gentamycin disc gradient, strain EC21 (second experiment)
Source text: The solid substrate 16 is a MH2 agar medium. Depending on the cases, the solid substrate 16 includes an antibiotic with increasing concentration when one moves away from the center of the Petri dish. For example, such a gradient is obtained by depositing a disc impregnated with 30 micrograms (μg) of antibiotics. The disc, as an illustration, is a disc with a diameter of 6.5 mm, the reference of which is 66548 in the Biorad Corporation. When the disc is deposited at the surface of the substrate 16, an antibiotic concentration gradient is established, in the substrate 16, between the disc and the periphery of the substrate 16. In each case, the sample 12 to be studied is prepared according to the following procedure. At least one cell of the strain to be studied is cultivated on a trypticase soya gelose medium (often called TSA for <<Tryptic Soy Agar>>) for at least 24 hours. A suspension of 5 milliliters (ml) comprising water and an amount of cells of the strain such that the turbidity of the solution is equal to 0.5 McF (McFarland standard), is then prepared. The obtained suspension is diluted to 1/1000th in water in a single step. In the relevant experiments, […] are poured into […]. A volume of 70 μl of the thereby obtained diluted suspension is then spread out by means of a rake on the solid MH2 agar substrate 16. Such a volume corresponds to the spreading of approximately 1,000 to 1,500 colonies on the solid substrate 16. In the case when the experiment is conducted with a solid substrate 16 comprising the antibiotic gradient, the disc is applied immediately after the spreading step. The whole of the sample 12 is then incubated for six hours at a temperature of 37° C. (Celsius). After these six hours, the observation system 10 is used for applying a method for observing the cells of the sample 12. For the second experiment, the same experiment is conducted as the first experiment, by replacing the cells of the strain EC10 with cells of the strain EC21. […]

[4] = system: Escherichia coli ATCC 259922 (strain EC10); assay: E-test minimum inhibitory concentration, sensitive strain EC10
Procedure: The sensitive strain is of the Escherichia coli species with the ATCC number of 259922. In the continuation of the description, the sensitive strain is noted as EC10. The minimum inhibitory concentration of the strain EC10 amounts to 1.0 μg/ml. In microbiology, the minimum inhibitory concentration (also noted with the acronym MIC) is the lowest concentration of antimicrobial agent which inhibits visible growth of an organism after one night of incubation. The value of 1.0 μg/ml for the minimum inhibitory concentration was obtained by conducting an E-test®. The principle of the E-test® is based on the combination of both concepts: Dilution and diffusion. The system E-test® comprises a non-porous plastic strip calibrated by a pre-established gradient of antibiotic concentration covering 15 dilutions for determining the MIC in μg/ml of a strain tested in a gelose medium.

Substance: gentamycin
- minimum inhibitory concentration (MIC) [1]: greater than 256 μg/ml
- maximum size of colony in direct space ([2]; 5.0 mm from center of 30 μg disc, 6 h incubation at 37° C.): about 15 μm
- maximum size of colony in direct space ([2]; 8.3 mm from center of 30 μg disc, 6 h incubation at 37° C.): about 30 μm
- maximum size of colony in direct space ([2]; 9.1 mm from center of 30 μg disc, 6 h incubation at 37° C.): about 50 μm
- colony diameter in direct space ([2]; 13.5 mm from center of 30 μg disc, 6 h incubation at 37° C.): about 60 μm
- sensitivity of organism from main component analysis of diffraction patterns ([2]; about 100 diffraction patterns, with and without gentamycin, first main component smaller at larger concentration): sensitive
- maximum extension of each observed colony ([3]; 7.29, 6.63, 5.53 and 4.37 mm from center of 30 μg disc, 6 h incubation at 37° C.): ~90 μm
- sensitivity of organism from comparison of diffraction patterns ([3]; diffraction patterns substantially identical at increasing gentamycin concentration): resistant
- effect on growth of the organisms ([3]; gentamycin gradient on MH2 agar): no effect on the growth
- minimum inhibitory concentration (MIC) [4]: 1.0 µg/mL
